Results from US9283222B2 (priority 2006, dated 2016).

These molecules were tested against Recombinant Human Poly(ADP-Ribose) Polymerase (PARP), PARP-1 (Homo sapiens (Human), UniProt P09874). Settings: read-out: PARP-1 (Ki); Table 1; text calls the values EC50s.
Sequence of Recombinant Human Poly(ADP-Ribose) Polymerase (PARP), PARP-1 (P09874 whole entry): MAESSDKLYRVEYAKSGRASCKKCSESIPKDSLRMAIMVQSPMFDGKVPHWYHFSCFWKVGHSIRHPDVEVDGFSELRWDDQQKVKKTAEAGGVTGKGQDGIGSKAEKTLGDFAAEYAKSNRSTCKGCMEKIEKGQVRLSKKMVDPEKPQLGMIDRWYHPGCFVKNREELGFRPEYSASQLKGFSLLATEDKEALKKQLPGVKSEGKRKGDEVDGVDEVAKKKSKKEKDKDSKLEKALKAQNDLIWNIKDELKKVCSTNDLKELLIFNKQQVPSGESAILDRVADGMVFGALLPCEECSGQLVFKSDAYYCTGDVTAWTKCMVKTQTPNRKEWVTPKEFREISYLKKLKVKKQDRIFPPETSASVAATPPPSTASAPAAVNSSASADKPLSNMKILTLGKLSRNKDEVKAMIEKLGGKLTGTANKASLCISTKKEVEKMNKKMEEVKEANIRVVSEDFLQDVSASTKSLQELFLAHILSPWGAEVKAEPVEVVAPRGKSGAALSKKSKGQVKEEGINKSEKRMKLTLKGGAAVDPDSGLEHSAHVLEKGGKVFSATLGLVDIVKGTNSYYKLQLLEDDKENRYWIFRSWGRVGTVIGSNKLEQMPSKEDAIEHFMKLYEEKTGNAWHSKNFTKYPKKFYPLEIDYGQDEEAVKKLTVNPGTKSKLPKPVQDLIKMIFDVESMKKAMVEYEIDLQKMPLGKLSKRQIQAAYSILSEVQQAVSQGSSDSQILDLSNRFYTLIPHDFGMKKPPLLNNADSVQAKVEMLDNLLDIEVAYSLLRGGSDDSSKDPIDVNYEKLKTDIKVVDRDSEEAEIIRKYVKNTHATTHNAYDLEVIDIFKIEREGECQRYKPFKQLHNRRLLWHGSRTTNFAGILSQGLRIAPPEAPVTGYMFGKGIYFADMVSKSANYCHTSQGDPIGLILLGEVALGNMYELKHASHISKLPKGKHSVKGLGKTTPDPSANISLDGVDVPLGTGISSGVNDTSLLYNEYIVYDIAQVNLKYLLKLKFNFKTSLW
Experimental: Nicotinamide[2,5′,8-3H]adenine dinucleotide and strepavidin SPA beads were purchased from Amersham Biosiences. […] NAD^+, histone, aminobenzamide, 3-amino benzamide and Calf Thymus DNA (dcDNA) were purchased from Sigma. Stem loop oligonucleotide containing MCAT sequence was obtained from Qiagen. The oligos were dissolved to 1 mM in annealing buffer containing 10 mM Tris HCl pH 7.5, 1 mM EDTA, and 50 mM NaCl, incubated for 5 minutes at 95° C., and annealed at 45° C. for 45 minutes. […] Biotinylated histone H1 was prepared by treating the protein with Sulfo-NHS-LC-Biotin from Pierce. The biotinylation reaction was conducted by slowly and intermittently adding 3 equivalents of 10 mM Sulfo-NHS-LC-Biotin to 100 μM Histone H1 in phosphate-buffered saline, pH 7.5, at 4° C. with gentle vortexing over 1 minute followed by subsequent 4° C. incubation for 1 hour. Streptavidin coated (FlashPlate Plus) microplates were purchased from Perkin Elmer.
PARP1 assay was conducted in PARP assay buffer containing 50 mM Tris pH 8.0, 1 mM DTT, 4 mM MgCl2. […] Auto reactions utilizing SPA bead-based detection were carried out in 100 μL volumes in white 96 well plates.
With `O=C1CCN1c1ccc(Cc2n[nH]c(=O)c3c2CCCC3)cn1` [Example 105, 4-((6-(2-oxoazetidin-1-yl)pyridin-3-yl)methyl)-5,6,7,8-tetrahydrophthalazin-1(2H)-one] the Ki was 725 nM.
In the case of `O=C(Nc1ccc(Cc2n[nH]c(=O)c3c2CCCC3)cn1)c1ccccc1` [Example 106, N-(5-((4-oxo-3,4,5,6,7,8-hexahydrophthalazin-1-yl)methyl)pyridin-2-yl)benzamide], the Ki is reported as 290 nM.
`O=C(Nc1ccc(Cc2n[nH]c(=O)c3c2CCCC3)cn1)c1ccncc1` [Example 107, N-(5-((4-oxo-3,4,5,6,7,8-hexahydrophthalazin-1-yl)methyl)pyridin-2-yl)isonicotinamide] showed a Ki of 216 nM.
Molecule `O=C(Nc1ccc(Cc2n[nH]c(=O)c3c2CCCC3)cn1)c1cccnc1` [Example 108, N-(5-((4-oxo-3,4,5,6,7,8-hexahydrophthalazin-1-yl)methyl)pyridin-2-yl)nicotinamide] has a Ki of 576 nM.
In the case of `O=c1[nH]nc(Cc2ccc(-c3ccc(Cc4n[nH]c(=O)c5c4CCCC5)cn3)nc2)c2c1CCCC2` [Example 109, 4-((5′-((4-oxo-3,4,5,6,7,8-hexahydrophthalazin-1-yl)methyl)-2,2′-bipyridin-5-yl)methyl)-5,6,7,8-tetrahydrophthalazin-1(2H)-one], the Ki is reported as 609 nM.
Work on `CNC(=O)c1ccc(Cc2n[nH]c(=O)c3c2CCCC3)s1` [Example 110, N-methyl-5-((4-oxo-3,4,5,6,7,8-hexahydrophthalazin-1-yl)methyl)thiophene-2-carboxamide] yielded a Ki of 372 nM.
In the case of `NCC(=O)Nc1cccc(Cc2n[nH]c(=O)c3c2CCCC3)c1` [Example 111], the Ki is reported as 12 nM.
Work on `O=C(Nc1cccc(Cc2n[nH]c(=O)c3c2CCCC3)c1)C1CNC1` [Example 113, N-(3-((4-oxo-3,4,5,6,7,8-hexahydrophthalazin-1-yl)methyl)phenyl)azetidine-3-carboxamide] yielded a Ki of 6 nM.
Molecule `CS(=O)(=O)Nc1cccc(Cc2n[nH]c(=O)c3c2CCCC3)c1` [Example 114, N-(3-((4-oxo-3,4,5,6,7,8-hexahydrophthalazin-1-yl)methyl)phenyl)methanesulfonamide] has a Ki of 65 nM.
`CC(C)S(=O)(=O)Nc1cccc(Cc2n[nH]c(=O)c3c2CCCC3)c1` [Example 115, N-(3-((4-oxo-3,4,5,6,7,8-hexahydrophthalazin-1-yl)methyl)phenyl)propane-2-sulfonamide] was tested, and the Ki was 157 nM.
`O=c1[nH]nc(Cc2cccc(NS(=O)(=O)c3ccccc3)c2)c2c1CCCC2` [Example 116, N-(3-((4-oxo-3,4,5,6,7,8-hexahydrophthalazin-1-yl)methyl)phenyl)benzenesulfonamide] gave a Ki of 578 nM.
For `O=c1[nH]nc(Cc2cccc(NS(=O)(=O)c3cccnc3)c2)c2c1CCCC2` [Example 117, N-(3-((4-oxo-3,4,5,6,7,8-hexahydrophthalazin-1-yl)methyl)phenyl)pyridine-3-sulfonamide], the Ki was 477 nM.
Molecule `O=c1[nH]nc(Cc2cccc(NS(=O)(=O)c3ccco3)c2)c2c1CCCC2` [Example 118, N-(3-((4-oxo-3,4,5,6,7,8-hexahydrophthalazin-1-yl)methyl)phenyl)furan-2-sulfonamide] has a Ki of 2030 nM.
`Cn1cnc(S(=O)(=O)Nc2cccc(Cc3n[nH]c(=O)c4c3CCCC4)c2)c1` [Example 119, 1-methyl-N-(3-((4-oxo-3,4,5,6,7,8-hexahydrophthalazin-1-yl)methyl)phenyl)-1H-imidazole-4-sulfonamide] gave a Ki of 703 nM.
`O=c1[nH]nc(Cc2cccc(NS(=O)(=O)c3cccs3)c2)c2c1CCCC2` [Example 120, N-(3-((4-oxo-3,4,5,6,7,8-hexahydrophthalazin-1-yl)methyl)phenyl)thiophene-2-sulfonamide] gave a Ki of 626 nM.
In the case of `N#Cc1ccc(S(=O)(=O)Nc2cccc(Cc3n[nH]c(=O)c4c3CCCC4)c2)cc1` [Example 121, 4-cyano-N-(3-((4-oxo-3,4,5,6,7,8-hexahydrophthalazin-1-yl)methyl)phenyl)benzenesulfonamide], the Ki is reported as 776 nM.
